target: T1, vanilloid receptor (Rattus norvegicus, UniProt O35433); test: 45Ca influx test (calcium uptake) in primary cultured DRG neurons, antagonism of capsaicin; type: cell-based; conditions: neonatal SD rat DRG nerve cells; capsaicin 0.5 μM; 45Ca 10 μCi/ml; 10 mins room temperature; read-out: Antagonist Calcium Uptake Test (IC50)
T1 construct: DRG nerve cells from the primary culture of 2 days were equilibrated; endogenous in cells; host or cells: primary cultured dorsal root ganglion neurons of neonatal SD rats
T1 sequence (O35433 whole entry): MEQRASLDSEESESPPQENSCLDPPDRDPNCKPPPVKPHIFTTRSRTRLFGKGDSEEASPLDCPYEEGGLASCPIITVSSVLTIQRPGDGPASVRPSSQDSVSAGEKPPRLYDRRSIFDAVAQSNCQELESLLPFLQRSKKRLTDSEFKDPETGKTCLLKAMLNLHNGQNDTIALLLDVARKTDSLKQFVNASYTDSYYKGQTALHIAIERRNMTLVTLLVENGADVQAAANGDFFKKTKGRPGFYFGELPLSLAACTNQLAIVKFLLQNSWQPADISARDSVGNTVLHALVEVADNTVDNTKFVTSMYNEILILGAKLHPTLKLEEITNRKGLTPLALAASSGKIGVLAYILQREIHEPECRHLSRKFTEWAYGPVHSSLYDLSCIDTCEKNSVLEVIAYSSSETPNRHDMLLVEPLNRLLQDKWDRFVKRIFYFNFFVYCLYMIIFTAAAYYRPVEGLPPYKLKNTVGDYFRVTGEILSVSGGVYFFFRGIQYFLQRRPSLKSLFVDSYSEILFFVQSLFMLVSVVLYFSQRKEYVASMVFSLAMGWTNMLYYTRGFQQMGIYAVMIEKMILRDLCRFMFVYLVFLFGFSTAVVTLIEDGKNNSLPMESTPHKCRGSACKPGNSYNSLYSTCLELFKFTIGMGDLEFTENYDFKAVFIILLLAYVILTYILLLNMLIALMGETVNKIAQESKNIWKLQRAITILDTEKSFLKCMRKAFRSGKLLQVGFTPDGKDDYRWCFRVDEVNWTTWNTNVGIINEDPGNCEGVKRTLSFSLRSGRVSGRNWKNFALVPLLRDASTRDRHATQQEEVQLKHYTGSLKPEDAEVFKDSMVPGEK
Procedure: 1) Separation of Spinal Dorsal Root Ganglia (DRG) in Newborn Rats and Primary Culture Thereof
Neonatal (2-3 day old or younger than 2-3 day old) SD rats were put in ice for 5 minutes to anesthetize and disinfected with 70% ethanol. […] The DRG were incubated sequentially at 37° C. for 30 min in 200 U/ml collagenase and 2.5 mg/ml trypsin, separately. The ganglia were washed twice with DME/F12 medium supplemented with 10% horse serum, triturated through a fire-polished Pasteur pipette, filtered through Nitex 80 membrane to obtain single cell suspension and the suspension was washed once more. This was subjected to centrifugation, then resuspended in cell culture medium at certain level of cell density. As the cell culture medium, DME/F12 medium supplemented with 10% horse serum was diluted with identical medium conditioned by C6 glioma cells 2 days on a confluent monolayer (1:1), and NGF (Nerve Growth Factor) was added to adjust 200 ng/ml as final concentration. After the cells were grown 2 days in medium where cytosine arabinoside (Ara-C, 100 μM) was added to kill dividing nonneuronal cells, medium was changed to one without Ara-C. The resuspended cells were plated at a density of 1500-2000 neurons/well onto Terasaki plates previously coated with 10 μg/ml poly-D-ornithine.
2) ^45Ca Influx Experiments
DRG nerve cells from the primary culture of 2 days were equilibrated by washing 4 times with HEPES (10 mM, pH 7.4)-buffered Ca^2+, Mg^2+-free HBSS (H—HBSS). The solution in each well was removed from the individual well. Medium containing the test compound plus capsaicin (final concentration 0.5 μM) and ^45Ca (final concentration 10 μCi/ml) in H—HBSS was added to each well and incubated at room temperature for 10 mins. Terasaki plates were washed five times with H—HBSS and dried at room temperature. To each well, 0.3% SDS (10 μl) was added to elute ^45Ca. After the addition of scintillation cocktail of into each well, the amount of ^45Ca influx into neuron was measured by counting radioactivity.

Structure (SMILES)	IC50 [nM]
C=Cc1cc(CNC(=O)/C=C/c2ccc(C(C)(C)C)cc2OC)cc(F)c1NS(C)(=O)=O [Example 28, 3-(4-tert-Butyl-2-methoxyphenyl)-N-(3-fluoro-4-methanesulfonylamino-5-vinyl-benzyl)acrylamide]	73
C#Cc1cc(CNC(=O)NCc2ccc(C(C)(C)C)cc2)cc(F)c1NS(C)(=O)=O [Example 3, N-{4-[3-(4-t-butylbenzyl)ureidomethyl]-2-ethynyl-6-fluorophenyl}methanesulfonamide]	180
C=Cc1cc(CNC(=O)NCc2ccc(C(C)(C)C)cc2)c(Cl)cc1NS(C)(=O)=O [Example 4, N-{4-[3-(4-t-butylbenzyl)ureidomethyl]-5-chloro-2-vinylphenyl}methanesulfonamide]	170
C#Cc1cc(CNC(=O)CCc2ccc(C(C)(C)C)cc2)cc(F)c1NS(C)(=O)=O [Example 47, 3-(4-tert-butyl-phenyl)-N-(3-ethynyl-5-fluoro-4-methanesulfonylamino-benzyl)-propionamide]	170
C=Cc1cc(CNC(=O)/C(F)=C/c2ccc(C(C)(C)C)cc2)cc(F)c1NS(C)(=O)=O [Example 38, 3-(4-tert-Butylphenyl)-2-fluoro-N-(3-fluoro-4-methanesulfonylamino-5-vinylbenzyl)acrylamide]	270
C=Cc1cc(CNC(=O)/C=C/c2ccc(C(C)(C)C)cc2OCCOC)cc(F)c1NS(C)(=O)=O [Example 23, 3-[4-tert-Butyl-2-(2-methoxy-ethoxy)-phenyl]-N-(3-fluoro-4-methanesulfonylamino-5-vinyl-benzyl)-acrylamide]	67
C=Cc1cc([C@@H](C)NC(=O)CCc2ccc(C(C)(C)C)cc2)cc(F)c1NS(C)(=O)=O [Example 35, (R)-3-(4-tert-Butylphenyl)-N-[1-(3-fluoro-4-methanesulfonylamino-5-vinylphenyl)ethyl]propionamide]	33
C=Cc1cc(CNC(=O)/C=C/c2ccc(C(C)(C)C)cc2NCCOC)cc(F)c1NS(C)(=O)=O [Example 27, 3-[4-tert-Butyl-2-(2-methoxyethylamino)phenyl]-N-(3-fluoro-4-methanesulfonylamino-5-vinylbenzyl)acrylamide]	76
C=Cc1cc(CNC(=O)Nc2ccc(C(C)(C)C)cc2)cc(F)c1NS(C)(=O)=O [Example 57, N-{4-[3-(4-tert-Butylphenyl)ureidomethyl]-2-fluoro-6-vinylphenyl}methanesulfonamide]	500
C#Cc1cc(CNC(=O)NCc2ccc(C(C)(C)C)cc2)c(Cl)cc1NS(C)(=O)=O [Example 5, N-{4-[3-(4-t-butylbenzyl)ureidomethyl]-5-chloro-2-ethynylphenyl}methanesulfonamide]	490
C=Cc1cc(CNC(=O)/C(C)=C/c2ccc(C(C)(C)C)cc2)cc(F)c1NS(C)(=O)=O [Example 37, 3-(4-tert-Butylphenyl)-N-(3-fluoro-4-methanesulfonylamino-5-vinylbenzyl)-2-methylacrylamide]	49
C=Cc1cc(CNC(=O)/C=C/c2ccc(C(C)(C)C)cc2)cc(Cl)c1NS(C)(=O)=O [Example 21, 3-(4-tert-Butylphenyl)-N-(3-chloro-4-methanesulfonylamino-5-vinylbenzyl)acrylamide]	160
C=Cc1cc([C@@H](C)NC(=O)Nc2ccc(C(C)(C)C)cc2)ccc1NS(=O)(=O)C=C [Example 58, Ethenesulfonic Acid (4-{1-[3-(4-tert-butylphenyl)ureido]ethyl}-2-vinylphenyl)amide]	450
C=Cc1cc([C@@H](C)NC(=O)Nc2ccc(C(C)(C)C)cc2)ccc1NS(C)(=O)=O [Example 53, (R)—N-(4-{1-[3-(4-tert-Butylphenyl)ureido]ethyl}-2-vinylphenyl)methanesulfonamide]	99
C=Cc1cc(CNC(=O)NCc2ccc(C(C)(C)C)cc2)cc(Cl)c1NS(C)(=O)=O [Example 9, N-{4-[3-(4-tert-Butyl-benzyl)-ureidomethyl]-2-chloro-6-vinyl-phenyl}-methanesulfonamide]	130
C=Cc1cc([C@@H](C)NC(=O)C#Cc2ccc(C(C)(C)C)cc2)ccc1NS(C)(=O)=O [Example 11, 3-(4-t-butylphenyl)-N-[1-(R)-(4-methanesulfonylamino-3-vinylphenyl)ethyl]propiolicamide]	79
C=Cc1cc(CNC(=O)NCc2ccc(C(C)(C)C)cc2)ccc1NS(C)(=O)=O [Example 1, N-{4-[3-(4-t-butylbenzyl)ureidomethyl]-2-vinylphenyl}methanesulfonamide]	160
C=Cc1cc([C@@H](C)NC(=O)/C=C/c2ccc(C(C)(C)C)cc2)cc(F)c1NS(C)(=O)=O [Example 36, (R)-3-(4-tert-Butylphenyl)-N-[1-(3-fluoro-4-methanesulfonylamino-5-vinylphenyl)ethyl]acrylamide]	54
C=Cc1cc([C@@H](C)NC(=O)NCc2ccc(C(C)(C)C)cc2)cc(F)c1NS(C)(=O)=O [Example 7, (R)—N-(4-{1-[3-(4-tert-Butyl-benzyl)-ureido]-ethyl}-2-fluoro-6-vinyl-phenyl)-methanesulfonamide]	39
C=Cc1cc(CNC(=O)/C=C/c2ccc(C(C)(C)C)cc2NC(C)C)cc(F)c1NS(C)(=O)=O [Example 34, 3-(4-tert-Butyl-2-isopropylaminophenyl)-N-(3-fluoro-4-methanesulfonylamino-5-vinylbenzyl)acrylamide]	170
C=CCOc1cc(C(C)(C)C)ccc1/C=C/C(=O)NCc1cc(F)c(NS(C)(=O)=O)c(C=C)c1 [Example 30, 3-(2-Allyloxy-4-tert-butylphenyl)-N-(3-fluoro-4-methanesulfonylamino-5-vinylbenzyl)acrylamide]	68
C=Cc1cc([C@@H](C)NC(=O)C#Cc2ccc(C(C)(C)C)cc2)cc(F)c1NS(C)(=O)=O [Example 13, 3-(4-tert-Butylphenyl)propynoic acid N-[1-(3-fluoro-4-methanesulfonylamino-5-vinylphenyl)ethyl]amide]	150
C#Cc1cc([C@@H](C)NC(=O)Nc2ccc(C(C)(C)C)cc2)ccc1NS(C)(=O)=O [Example 55, (R)—N-(4-{1-[3-(4-tert-Butylphenyl)ureido]ethyl}-2-ethynylphenyl)methanesulfonamide]	170
C=Cc1cc(CNC(=O)/C=C/c2ccc(C(C)(C)C)cc2N2CCOCC2)cc(F)c1NS(C)(=O)=O [Example 22, 3-(4-tert-Butyl-2-morpholin-4-yl-phenyl)-N-(3-fluoro-4-methanesulfonylamino-5-vinylbenzyl)acrylamide]	250
C=Cc1cc(CNC(=O)C#Cc2ccc(C(C)(C)C)cc2)cc(F)c1NS(C)(=O)=O [Example 12, 3-(4-tert-Butylphenyl)propynoic acid 3-fluoro-4-methanesulfonylamino-5-vinylbenzylamide]	87
C=Cc1cc(CNC(=O)C(C)Cc2ccc(C(C)(C)C)cc2)cc(F)c1NS(C)(=O)=O (stereo not drawn) [Example 43, 3-(4-tert-Butylphenyl)-N-(3-fluoro-4-methanesulfonylamino-5-vinylbenzyl)-2-methylpropionamide]	67
C=Cc1cc(CNC(=O)NCc2ccc(C(C)(C)C)cc2)cc(C)c1NS(C)(=O)=O [Example 8, N-{4-[3-(4-tert-Butyl-benzyl)-ureidomethyl]-2-methyl-6-vinyl-phenyl}-methanesulfonamide]	310

Source: patent US7763657B2, “Compounds, isomer thereof, or pharmaceutically acceptable salts thereof as vanilloid receptor antagonist; and pharmaceutical compositions containing the same” (Amorepacific Corporation, priority 2005, dated 2010)
